What was measured:
[1] = system: AR protein in MCF-7 cells; assay: AR protein expression by western blot and immunofluorescence; type: cell-based, human; details: incubation 3 days
Method: Fig. 3 Influence of indicated compounds on the expression of the AR. […] AR protein expression was analyzed by western blot as described in “Materials and methods”. b The densitometric evaluation of the bands is calculated by ImageJ. The numbers represent the densitometric value relative to untreated control. […] Typical image is shown. Scale bars: 10 μm
Total cell proteins were obtained from 70% confluent cell cultures. Protein extracts of whole cells (50 μg) were denatured, separated by SDS–PAGE and transferred to polyvinylidene fluoride membranes. After blocking with 3% bovine serum albumin in Tris-buffered saline-Tween, membranes were probed overnight at 4 °C. […] After incubation with the appropriate secondary antibody, results were detected using ECL detection reagents. Immunoreactive bands were quantified by densitometry using ImageJ software.
MCF-7 cells were seeded on 24-well plates (2 × 10^4 cells/well) with a poly-L-lysine-coated glass coverslip per well in 10% PRF–CT. […] Cells were visualized with a ×40 objective and a Qimaging digital camera coupled to an Olympus X71 fluorescence microscope using a red fluorescent protein filter.

[2] = system: prostate (P), seminal vesicle (SV), levator ani muscle (LA); assay: Hershberger assay in orchiectomized rats; type: in vivo, Wistar male rats; details: doses as in Fig. 5, s.c. once a day, 12 days, castrated rats
Method: Fig. 5 Estimation of the androgenic and myotrophic activities of the indicated compounds obtained by the Hershberger Assay. Wistar male rats were orchiectomized (orchi) or sham-operated (intact) under ether anesthesia. After 14 days of endogenous hormonal decline, animals were randomly allocated to treatment and vehicle groups (n = 6). The numbers at the end of the abbreviations correspond to the dose in mg/kg body weight of the animal. Flutamide was given by gavage (10 mg/kg/day). […] Then the animals were treated once a day. The rats were sacrificed after completion of the 12-day treatment. Following removal, wet weights of the prostate (P), seminal vesicle (SV), levator ani muscle (LA) were determined. a Size and shape of P, SV and LA at the end of the treatment period. b, c, and d, influence of treatment with the compounds alone or together with the antiandrogen flutamide at the indicated doses on the weight of the organs (P, SV and LA) of the castrated animals. The mean wet weight is represented by the bars in the graphs. Values are means ± SEM; bars, SEM. *P ≤ 0.05, **P ≤ 0.01 vs. control
The Hershberger assay was performed according to the guidelines of the rodent Hershberger assay. Male Wistar rats (140 g, 5–6 weeks) were orchiectomized (orchi) or sham-operated (intact) under ether anesthesia. After 14 days of endogenous hormonal decline, animals were randomly allocated to treatment and vehicle groups (n = 6); orchi group = orchi rats receiving sham injections; intact group = sham-operated rats receiving sham injections; treatment group = orchi rats receiving drugs injections by subcutaneous. The antiandrogen flutamide given by gavage (10 mg/kg/day). Drugs were dissolved in ethanol and diluted in corn oil. The animals were treated once a day. Rats were sacrificed after completion of the 12-day treatment. Following removal, the wet weights of the P, SV, and LA muscle were determined. The data of tissue weights are presented as mean ± SEM.

C[C@]12CCC(=O)C[C@@H]1CC[C@@H]1[C@@H]2CC[C@]2(C)[C@@H](O)CC[C@@H]12 [DHT, dihydrotestosterone]
expression of the AR protein [1]: enhanced considerably
Cyclin D1 mRNA and protein (cyclin D1 in MCF-7 cells): decrease

C[C@]12CC[C@H]3[C@@H](CCC4=C(O)C(=O)CC[C@@]43C)[C@@H]1CC[C@@H]2O [4-OHT, 4-hydroxytestosterone]
myotrophic effect (LA) [2]: a little more myotrophic than 17-HEXE

C=C1C[C@H]2[C@@H]3CC[C@H](O)[C@@]3(C)CC[C@@H]2[C@@]2(C)C=CC(=O)C=C12 [17-HEXE, 17-hydroexemestane]
androgenic effect (P and SVs, size and wet weight) [2]: a little more androgenic than 4-OHT

Source: article PMC6591174, “The beneficial androgenic action of steroidal aromatase inactivators in estrogen-dependent breast cancer after failure of nonsteroidal drugs” (Cell Death & Disease, 2019)
